Source: patent publication US12552776B2, “Crystalline forms” (priority 2021, dated 2026)
Where a name gives a salt, the structure may show the parent alone.

Experiments:
[1] = Photostability study, D65 lamp 4000 lux, 25° C./60% RH, HPLC; format: physicochemical
Experimental: (§1) • HPLC data are obtained by Waters Alliance 2695 HPLC system with 2996 PDA detector using the following conditions; • Column: XBridge Phenyl (3.5 micrometers, 4.6×150 mm), • Eluent: acetonitrile/0.3% perchloric acid=35:65, • Detection: UV at 215 nm, • Flow rate: 1 mL/min, and • Column temperature: 40° C.
Photostability samples are set in Nagano Science LTL-200D3CJ-14. The samples are placed in the chamber and stored under 25° C./60% RH condition and irradiated with a D65 lamp on light condition of 4000 lux. HCl-salt Crystalline Form A, HCl-salt Amorphous, and Free-base Amorphous samples store for 13, 26 and 50 days under the condition are analyzed by HPLC, respectively.
FIGS. 7, 8 and 9 show the data of degradation products except for the existing products at initial samples (Day 0), i.e., definitely arising peaks on the HPLC chart after storing initial samples under light exposure. The relative retention time (RRT) represents a ratio of retention time (RT) of a target peak to RT of the main peak. In case of the appearance of the peak at same RRT at least two consecutive storing periods of 13, 26 and 50 days, the arising peak is recognized as a degradation product.

[2] = format: physicochemical; conditions: for other arising degradation products (not existing at Day 0) / remaining: 40° C./75% RH, storage period of 50 days, HPLC
Experimental: as §1
Solid-state stability study is performed using Nagano Science Constant temperature/humidity control chamber LH-20-11M, LH-21-11M, LTL-200D3CJ-14 or LTX-01. The samples are placed in the chamber and exposed under 25° C./60% RH, 40° C./75% RH and/or irradiated with the light such as D65 lamp or Xenon lamp. The crystalline form, thermal behavior, purity and/or weight change of the resultant sample after the exposure or irradiation are evaluated by XRPD, TG/DTA or DSC, HPLC, microbalance, respectively.

[3] = Hygroscopicity study by dynamic vapor sorption (DVS) analysis; format: physicochemical; conditions: for weight gain %: 25° C., DVS sorption; for water absorbed (water adsorption): 90% RH at 25° C.
Experimental: Hygroscopicity study is performed using Surface Measurement Systems DVS-1. The sample is placed on a microbalance in the instrument and the weight change during the sorption at 25° C. is monitored. One of the programs consists of a sorption scan from 0 to 90% relative humidity (RH) at 5% RH increments and the sample is allowed to equilibrate for 360 minutes or until equilibration had been attained at each step.
The hygroscopicity study is performed by using dynamic vapor sorption (DVS) analysis.

[4] = Chiral analysis by HPLC; format: physicochemical; conditions: CHIRALPAK IC HPLC
Experimental: • High Performance Liquid Chromatography (HPLC) measurement • HPLC data are obtained by Waters Alliance 2695 HPLC system with 2996 PDA detector using the following conditions; • Column: DAICEL CHIRALPAK IC (5 micrometers, 4.6×250 mm), • Eluent: n-hexane/ethanol/diethylamine=87/13/0.1 (v/v/v), • Detection: UV at 254 nm, • Flow rate: 1 mL/min, and • Column temperature: 40° C. • Data processing is performed with Empower 3 software supplied from Waters Corporation

[5] = molecular target: T1, motilin receptor (Homo sapiens, UniProt O43193); assay: Motilin receptor agonistic activity, reporter gene assay; format: cell-based; conditions: cell expressing motilin receptor and reporter gene; compared with initial sample
T1 construct: 'the cell expressing motilin receptor and reporter gene'
Text: Motilin receptor agonistic activity is identified by reporter gene assay using the cell expressing motilin receptor and reporter gene. The dose-response curve of assay sample is plotted and calculated to determine an agonistic activity (EC50).

[6] = Solubility study in buffers and water for injection; format: physicochemical; conditions: aqueous buffer, thermodynamic from solid, buffers pH 1.06, 2.98, 4.44, 7.34, 7.40, 9.22 and WFI, 5 mg in 20 microL
Experimental: Each 5 mg of HCl-salt Crystalline Form A was weighed in a vial and each 20 microL of buffers (pH 1.06, 2.98, 4.44, 7.34, 7.40 and 9.22) and WFI (water for injection) was added to the vial. After the mixture was shaken with a vortex mixer and stood still for 15 min, no insoluble matter was observed. The mixture kept a clear solution after still standing for 2 days.

T1 sequence (O43193 whole entry, species assumed): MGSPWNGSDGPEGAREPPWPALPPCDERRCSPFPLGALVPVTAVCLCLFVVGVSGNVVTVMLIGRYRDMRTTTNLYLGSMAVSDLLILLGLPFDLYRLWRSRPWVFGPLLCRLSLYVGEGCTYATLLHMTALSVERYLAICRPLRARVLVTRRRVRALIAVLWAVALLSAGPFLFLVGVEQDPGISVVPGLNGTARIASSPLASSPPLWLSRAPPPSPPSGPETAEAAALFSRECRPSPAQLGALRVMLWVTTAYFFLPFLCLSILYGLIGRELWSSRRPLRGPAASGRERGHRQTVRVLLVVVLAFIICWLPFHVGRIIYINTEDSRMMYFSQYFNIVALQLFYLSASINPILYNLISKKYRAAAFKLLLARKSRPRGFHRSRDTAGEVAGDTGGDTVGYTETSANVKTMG

In the case of `CC1(C)C(=O)N(C2CCN(C(=O)[C@H](CCc3ccccc3)NC(=O)[C@@H]3CCCNC3)CC2)c2ccccc21` [Free-base Amorphous, (R)—N—((S)-1-(4-(3,3-dimethyl-2-oxoindolin-1-yl)piperidin-1-yl)-1-oxo-4-phenylbutan-2-yl)piperidine-3-carboxamide], the “arising degradation products (peaks) due to irradiating light” value (shortened to “arising degradation products (peaks) due”) ([1]; 13 days) is reported as 2 peaks, the “arising degradation products (peaks) due” value ([1]; 26 days) is reported as 4 peaks and the “arising degradation products (peaks) due” value ([1]; 50 days) is reported as 4 peaks. The “other arising degradation products (not existing at Day 0)” value [2] was “four”, the remaining [2] was 97.2% and the weight gain % ([3]; 50% RH) was 5.2%. It also gave a weight gain % ([3]; 60% RH) of 7.1%, a weight gain % ([3]; 70% RH) of 9.5% and a weight gain % ([3]; 80% RH) of 11.7%. For the same compound, the “water absorbed (water adsorption)” value [3] was 17.9 wt % and the weight gain % ([3]; 90% RH) was 17.9%.
In the case of `CC1(C)C(=O)N(C2CCN(C(=O)[C@H](CCc3ccccc3)NC(=O)[C@@H]3CCCNC3)CC2)c2ccccc21.Cl` [HCl-salt Amorphous, (R)—N—((S)-1-(4-(3,3-dimethyl-2-oxoindolin-1-yl)piperidin-1-yl)-1-oxo-4-phenylbutan-2-yl)piperidine-3-carboxamide amorphous solid of hydrochloride], the “arising degradation products (peaks) due” value ([1]; 13 days) is reported as 2 peaks, the “arising degradation products (peaks) due” value ([1]; 26 days) is reported as 5 peaks and the “arising degradation products (peaks) due” value ([1]; 50 days) is reported as 5 peaks. For the same compound, the “other arising degradation products (not existing at Day 0)” value [2] was “one”, the remaining [2] was 97.0% and the weight gain % ([3]; 50% RH, hydrochloride) was 5.2%. It also gave a weight gain % ([3]; 60% RH, hydrochloride) of 7.6%, a weight gain % ([3]; 70% RH, hydrochloride) of 9.4% and a weight gain % ([3]; 80% RH, hydrochloride) of 13.3%. The “water absorbed (water adsorption)” value ([3]; hydrochloride) was 20.5 wt % and the weight gain % ([3]; 90% RH, hydrochloride) was 20.5%.
For `CC1(C)C(=O)N(C2CCN(C(=O)[C@H](CCc3ccccc3)NC(=O)[C@@H]3CCCNC3)CC2)c2ccccc21` [HCl-salt Crystalline Form A, (R)—N—((S)-1-(4-(3,3-dimethyl-2-oxoindolin-1-yl)piperidin-1-yl)-1-oxo-4-phenylbutan-2-yl)piperidine-3-carboxamide hydrochloride Crystalline Form A], the “stability in chiral analysis” value [4] was “preferable stability”, the “arising degradation products due to irradiating light” value ([1]; storing periods of 13, 26 and 50 days) was “no arising degradation products” and the “agonistic activity (EC50)” value [5] was “high potency consistent with initial sample”. For the same compound, the “other arising degradation products (not existing at Day 0)” value [2] was “no other arising degradation products”, the “changes in appearance, XRPD, IR (KBr), m.p. (DSC onset) and potency” value ([2]; during the storage period) was “no significant changes” and the solubility at 15 min [6] was greater than 250 mg/mL. For the same compound, the weight gain % ([3]; 50% RH) was 0.0%, the weight gain % ([3]; 60% RH) was 0.2% and the weight gain % ([3]; 70% RH) was 0.4%. The weight gain % ([3]; 80% RH) was 1.6%, the “water absorbed (water adsorption)” value [3] was “less than or equal to 3.4 wt %” and the weight gain % ([3]; 90% RH) was 3.4%.
With `CC1(C)C(=O)N(C2CCN(C(=O)[C@H](CCc3ccccc3)NC(=O)[C@@H]3CCCNC3)CC2)c2ccccc21.Cl` [HCl-salt Crystalline Form B, (R)—N—((S)-1-(4-(3,3-dimethyl-2-oxoindolin-1-yl)piperidin-1-yl)-1-oxo-4-phenylbutan-2-yl)piperidine-3-carboxamide hydrochloride Crystalline Form B] the “stability in chiral analysis” value [4] was “preferable stability”, the weight gain % ([3]; 50% RH) was 0.0% and the weight gain % ([3]; 60% RH) was 0.0%. For the same compound, the weight gain % ([3]; 70% RH) was 0.0%, the weight gain % ([3]; 80% RH) was 4.9% and the “water absorbed (water adsorption)” value [3] was no more than 8.6 wt %. The weight gain % ([3]; 90% RH) was 8.6%.
In the case of `CC1(C)C(=O)N(C2CCN(C(=O)[C@H](CCc3ccccc3)NC(=O)[C@@H]3CCCNC3)CC2)c2ccccc21.O=C(O)CNC(=O)c1ccccc1` [hippurate salt crystalline, (R)—N—((S)-1-(4-(3,3-dimethyl-2-oxoindolin-1-yl)piperidin-1-yl)-1-oxo-4-phenylbutan-2-yl)piperidine-3-carboxamide hippuric acid salt (hippurate salt)], the “observation in hygroscopicity study” value ([3]; 90% RH) is reported as “partial deliquescence is observed” and the “water absorbed (water adsorption)” value [3] is reported as 16.0 wt %.
With `CC1(C)C(=O)N(C2CCN(C(=O)[C@H](CCc3ccccc3)NC(=O)[C@@H]3CCCNC3)CC2)c2ccccc21.CS(=O)(=O)O` [mesylate salt crystalline, (R)—N—((S)-1-(4-(3,3-dimethyl-2-oxoindolin-1-yl)piperidin-1-yl)-1-oxo-4-phenylbutan-2-yl)piperidine-3-carboxamide methanesulfonic acid salt (mesylate salt)] the water adsorption ([3]; 60% RH) was 3.7 wt % and the “water absorbed (water adsorption)” value [3] was 16.9 wt %.
